Measurements taken from US9914710B2, “Bicyclic arylcarboxylic acid amides and their use as herbicides” (BAYER CROPSCIENCE AKTIENGESELLSCHAFT, priority 2014, dated 2018).

How the values were obtained:
Assay in all cases: Post-emergence herbicidal action against harmful plants
Type in all cases: in vivo
Details in all cases: one-leaf stage, application rate 80 g/ha, assessed visually after about 3 weeks vs untreated controls
Stellaria media = test system: Stellaria media
Procedure: (§1) Seeds of monocotyledonous and dicotyledonous weed and crop plants are laid out in sandy loam in wood-fiber pots, covered with soil and cultivated in a greenhouse under good growth conditions. 2 to 3 weeks after sowing, the test plants are treated at the one-leaf stage. The compounds of the invention, formulated in the form of wettable powders (WP) or as emulsion concentrates (EC), are then sprayed onto the green parts of the plants in the form of an aqueous suspension or emulsion at a water application rate equating to 600 to 800 I/ha, with addition of 0.2% wetting agent. After the test plants have been left to stand in the greenhouse under optimal growth conditions for about 3 weeks, the action of the preparations is assessed visually in comparison to untreated controls (herbicidal action in percent (%): 100% activity=the plants have died, 0% activity=like control plants). For example, compounds no. 1-18, 1-19, 1-20, 1-21, 1-23, 1-25, 1-26, 1-27, 1-30, 1-32, 1-51, 1-52, 1-53, 1-63, 1-65, 1-69, 1-70, 1-75, 1-76, 1-77, 1-78, 1-79, 1-80, 1-84, 2-18, 2-20 and 4-18 at an application rate of 80 g/ha each have 100% efficacy against Stellaria media, Veronica persica and Viola tricolor.

Viola tricolor = test system: Viola tricolor
Procedure: as §1

Veronica persica = test system: Veronica persica
Procedure: as §1

Cn1nnnc1NC(=O)c1cc2c(c([S+](C)[O-])c1Cl)CCC2 (racemic) [1-19]
100%: efficacy (herbicidal action in percent) against Stellaria media (Stellaria media) | efficacy (herbicidal action in percent) against Viola tricolor (Viola tricolor) | efficacy (herbicidal action in percent) against Veronica persica (Veronica persica)

CCn1nnnc1NC(=O)c1cc2c(c([S+](C)[O-])c1Cl)CCC2 (racemic) [1-25]
100%: efficacy (herbicidal action in percent) against Stellaria media (Stellaria media) | efficacy (herbicidal action in percent) against Viola tricolor (Viola tricolor) | efficacy (herbicidal action in percent) against Veronica persica (Veronica persica)

Cn1nnnc1NC(=O)c1cc2c(c([S+](C)[O-])c1Cl)CCCC2 (racemic) [1-52]
100%: efficacy (herbicidal action in percent) against Stellaria media (Stellaria media) | efficacy (herbicidal action in percent) against Viola tricolor (Viola tricolor) | efficacy (herbicidal action in percent) against Veronica persica (Veronica persica)

Cn1nnnc1NC(=O)c1cc2c(c([S+](C)[O-])c1Cl)CCO2 (racemic) [1-70]
100%: efficacy (herbicidal action in percent) against Stellaria media (Stellaria media) | efficacy (herbicidal action in percent) against Viola tricolor (Viola tricolor) | efficacy (herbicidal action in percent) against Veronica persica (Veronica persica)

Cn1nnnc1NC(=O)c1cc2c(c([S+](C)[O-])c1Br)CCC2 (racemic) [1-76]
100%: efficacy (herbicidal action in percent) against Stellaria media (Stellaria media) | efficacy (herbicidal action in percent) against Viola tricolor (Viola tricolor) | efficacy (herbicidal action in percent) against Veronica persica (Veronica persica)

CC[S+]([O-])c1c(Br)c(C(=O)Nc2nnnn2C)cc2c1CCC2 (racemic) [1-79]
100%: efficacy (herbicidal action in percent) against Stellaria media (Stellaria media) | efficacy (herbicidal action in percent) against Viola tricolor (Viola tricolor) | efficacy (herbicidal action in percent) against Veronica persica (Veronica persica)

CSc1c(Cl)c(C(=O)Nc2nnnn2C)cc2c1CCC2 [1-18]
100%: efficacy (herbicidal action in percent) against Stellaria media (Stellaria media) | efficacy (herbicidal action in percent) against Viola tricolor (Viola tricolor) | efficacy (herbicidal action in percent) against Veronica persica (Veronica persica)

Cn1nnnc1NC(=O)c1cc2c(c(S(C)(=O)=O)c1Cl)CCC2 [1-20]
100%: efficacy (herbicidal action in percent) against Stellaria media (Stellaria media) | efficacy (herbicidal action in percent) against Viola tricolor (Viola tricolor) | efficacy (herbicidal action in percent) against Veronica persica (Veronica persica)

CCSc1c(Cl)c(C(=O)Nc2nnnn2C)cc2c1CCC2 [1-21]
100%: efficacy (herbicidal action in percent) against Stellaria media (Stellaria media) | efficacy (herbicidal action in percent) against Viola tricolor (Viola tricolor) | efficacy (herbicidal action in percent) against Veronica persica (Veronica persica)

CCS(=O)(=O)c1c(Cl)c(C(=O)Nc2nnnn2C)cc2c1CCC2 [1-23]
100%: efficacy (herbicidal action in percent) against Stellaria media (Stellaria media) | efficacy (herbicidal action in percent) against Viola tricolor (Viola tricolor) | efficacy (herbicidal action in percent) against Veronica persica (Veronica persica)

CCn1nnnc1NC(=O)c1cc2c(c(S(C)(=O)=O)c1Cl)CCC2 [1-26]
100%: efficacy (herbicidal action in percent) against Stellaria media (Stellaria media) | efficacy (herbicidal action in percent) against Viola tricolor (Viola tricolor) | efficacy (herbicidal action in percent) against Veronica persica (Veronica persica)

CCSc1c(Cl)c(C(=O)Nc2nnnn2CC)cc2c1CCC2 [1-27]
100%: efficacy (herbicidal action in percent) against Stellaria media (Stellaria media) | efficacy (herbicidal action in percent) against Viola tricolor (Viola tricolor) | efficacy (herbicidal action in percent) against Veronica persica (Veronica persica)

CSc1c(Cl)c(C(=O)Nc2nnnn2C)cc2c1C(=O)CC2 [1-30]
100%: efficacy (herbicidal action in percent) against Stellaria media (Stellaria media) | efficacy (herbicidal action in percent) against Viola tricolor (Viola tricolor) | efficacy (herbicidal action in percent) against Veronica persica (Veronica persica)

Cn1nnnc1NC(=O)c1cc2c(c(S(C)(=O)=O)c1Cl)C(=O)CC2 [1-32]
100%: efficacy (herbicidal action in percent) against Stellaria media (Stellaria media) | efficacy (herbicidal action in percent) against Viola tricolor (Viola tricolor) | efficacy (herbicidal action in percent) against Veronica persica (Veronica persica)

CSc1c(Cl)c(C(=O)Nc2nnnn2C)cc2c1CCCC2 [1-51, N-(1-methyltetrazol-5-yl)-3-chloro-4-(methylthio)-5,6,7,8-tetrahydronaphthalene-2-carboxamide]
100%: efficacy (herbicidal action in percent) against Stellaria media (Stellaria media) | efficacy (herbicidal action in percent) against Viola tricolor (Viola tricolor) | efficacy (herbicidal action in percent) against Veronica persica (Veronica persica)

Cn1nnnc1NC(=O)c1cc2c(c(S(C)(=O)=O)c1Cl)CCCC2 [1-53]
100%: efficacy (herbicidal action in percent) against Stellaria media (Stellaria media) | efficacy (herbicidal action in percent) against Viola tricolor (Viola tricolor) | efficacy (herbicidal action in percent) against Veronica persica (Veronica persica)

CSc1c(Cl)c(C(=O)Nc2nnnn2C)cc2c1OCC2 [1-63]
100%: efficacy (herbicidal action in percent) against Stellaria media (Stellaria media) | efficacy (herbicidal action in percent) against Viola tricolor (Viola tricolor) | efficacy (herbicidal action in percent) against Veronica persica (Veronica persica)

Cn1nnnc1NC(=O)c1cc2c(c(S(C)(=O)=O)c1Cl)OCC2 [1-65]
100%: efficacy (herbicidal action in percent) against Stellaria media (Stellaria media) | efficacy (herbicidal action in percent) against Viola tricolor (Viola tricolor) | efficacy (herbicidal action in percent) against Veronica persica (Veronica persica)

CSc1c(Cl)c(C(=O)Nc2nnnn2C)cc2c1CCO2 [1-69]
100%: efficacy (herbicidal action in percent) against Stellaria media (Stellaria media) | efficacy (herbicidal action in percent) against Viola tricolor (Viola tricolor) | efficacy (herbicidal action in percent) against Veronica persica (Veronica persica)

CSc1c(Br)c(C(=O)Nc2nnnn2C)cc2c1CCC2 [1-75]
100%: efficacy (herbicidal action in percent) against Stellaria media (Stellaria media) | efficacy (herbicidal action in percent) against Viola tricolor (Viola tricolor) | efficacy (herbicidal action in percent) against Veronica persica (Veronica persica)

Cn1nnnc1NC(=O)c1cc2c(c(S(C)(=O)=O)c1Br)CCC2 [1-77]
100%: efficacy (herbicidal action in percent) against Stellaria media (Stellaria media) | efficacy (herbicidal action in percent) against Viola tricolor (Viola tricolor) | efficacy (herbicidal action in percent) against Veronica persica (Veronica persica)

CCSc1c(Br)c(C(=O)Nc2nnnn2C)cc2c1CCC2 [1-78]
100%: efficacy (herbicidal action in percent) against Stellaria media (Stellaria media) | efficacy (herbicidal action in percent) against Viola tricolor (Viola tricolor) | efficacy (herbicidal action in percent) against Veronica persica (Veronica persica)

CCS(=O)(=O)c1c(Br)c(C(=O)Nc2nnnn2C)cc2c1CCC2 [1-80]
100%: efficacy (herbicidal action in percent) against Stellaria media (Stellaria media) | efficacy (herbicidal action in percent) against Viola tricolor (Viola tricolor) | efficacy (herbicidal action in percent) against Veronica persica (Veronica persica)

CCSc1c(Br)c(C(=O)Nc2nnnn2CC)cc2c1CCC2 [1-84]
100%: efficacy (herbicidal action in percent) against Stellaria media (Stellaria media) | efficacy (herbicidal action in percent) against Viola tricolor (Viola tricolor) | efficacy (herbicidal action in percent) against Veronica persica (Veronica persica)

CSc1c(Cl)c(C(=O)Nc2ncnn2C)cc2c1CCC2 [2-18]
100%: efficacy (herbicidal action in percent) against Stellaria media (Stellaria media) | efficacy (herbicidal action in percent) against Viola tricolor (Viola tricolor) | efficacy (herbicidal action in percent) against Veronica persica (Veronica persica)

Cn1ncnc1NC(=O)c1cc2c(c(S(C)(=O)=O)c1Cl)CCC2 [2-20]
100%: efficacy (herbicidal action in percent) against Stellaria media (Stellaria media) | efficacy (herbicidal action in percent) against Viola tricolor (Viola tricolor) | efficacy (herbicidal action in percent) against Veronica persica (Veronica persica)

CSc1c(Cl)c(C(=O)Nc2nnc(C)o2)cc2c1CCC2 [4-18]
100%: efficacy (herbicidal action in percent) against Stellaria media (Stellaria media) | efficacy (herbicidal action in percent) against Viola tricolor (Viola tricolor) | efficacy (herbicidal action in percent) against Veronica persica (Veronica persica)
